According to patent EP4796540A2, “N-SULFONAMIDE NITROGEN-CONTAINING FUSED HETEROCYCLIC COMPOUND, AND APPLICATION THEREOF” (priority 2023, dated 2025):
Where two headings read alike, the source gives them in different places.

Key:
[1] = test system: p53 Y220C mutant; assay: HTRF assay: compounds promoting the binding of p53 Y220C mutant with DNA; assay type: biochemical; settings: His-tagged p53 Y220C (94-312), biotin-labeled DNA
Protocol: Homogeneous time-resolved fluorescence (HTRF) assay was used to measure the reactivation effect of compounds on the p53 Y220C mutant. The recombinant His-tagged p53 Y220C (94-312) used for HTRF assays was expressed in E. coli and purified to the purity of 90% through Ni-NTA column. The biotin-labeled DNA used for HTRF assays was synthesized by Pharmaron Inc, with the specific sequence of 5'-[…]-3' .
The binding of recombinant His-tagged p53 Y220C protein and biotin-labeled DNA was measured using fluorescence resonance energy transfer (FRET). For FRET assays, binding between p53 mutants and DNA sequences was measured by detecting the fluorescence of the interaction between an anti-His antibody (Cisbio, 61HI2KLA) conjugated to Eu and d2-conjugated streptavidin (Cisbio, 610SADLF) bound to a biotin-labeled DNA molecule. Compounds were prepared into 2 mM stock solutions and serially diluted into 10 concentrations at a 1:3 ratio in DMSO. Each 200-fold working concentration compound was sequentially diluted to 4-fold working concentration. 4 µL of compound solution was transferred line by line to a 384-well assay plate using Echo, containing 2 replicates per column. 4 µL of p53 solution was added to the assay plate. 4 µL of biotin DNA solution was added to the assay plate, and then 4 µL of assay solution (His-Eu antibody and streptavidin-d2) was added to each well of the assay plate. The assay plate was incubated overnight and protected from light. Fluorescence was read on BMG (BMG LRBTECH).
The ratio of each well was calculated (ratio_665 nm/615 nm-ratio_background). The activity % was calculated as follows: C = (Ave_Ac−Ave_Ba)/(Ave_Dc_Ave_Bd) [formula] R data = (A−Ave_Ba−C*D)/(D−Ave_Bd)*(Ave_Dc−Ave_Bd) [formula] Activity % = R data/Ave_VC*100. [formula] • A: fluorescence intensity of the sample at 665 nm; • D: fluorescence intensity of the sample at 615 nm; • Ba: fluorescence intensity of the plate background at 665 nm; • Bd: fluorescence intensity of the plate background at 615 nm; • Dc: fluorescence intensity of HIS-Eu background at 615 nm; • Ac: fluorescence intensity of streptavidin-d2 background at 665 nm; • VC: DMSO treatment group.
SC150 was calculated using Graphpad 8.0 to fit the logarithm of activity% and compound concentration to a nonlinear regression (dose response-variable slope). Table 1: Activity of compounds promoting the binding of p53 Y220C mutant with DNA

[2] = test system: CYP3A4/5; settings: human, microsomes, 10 min, 10 µM
Protocol: (§1) Experimental purpose: To test the inhibitory effect of compounds on CYP isoenzymes at a single concentration. • 2. Experimental instrument and reagents:
(§2) 8.71 g of K2HPO4 was dissolved in 950 mL of water. The pH was adjusted to 7.4 with HCl solution. The mixture was adjusted to a final volume of 1000 mL with water. The buffer was filtered through a 0.45 µm filter. The buffer was stored in a refrigerator at 4°C for future use. Terfenadine/tolbutamide (1 mg/mL each) stock solutions were prepared with DMSO. The above stock solution was diluted with acetonitrile to produce a quenching solution containing 5/10 ng/mL (terfenadine/tolbutamide).
(§3) Liver microsomes were thawed in a 37°C water bath prior to use. Liver microsome working solution (final concentration of 0.5 mg/mL) was prepared. 5 mM NADPH working solution was prepared with phosphate buffered saline. The above stock solution was prepared into a 2 mM working solution with DMSO.
(§4) 238.5 µL of liver microsome working solution was added to a 1.1 mL tube. 1.5 µL of test compound/control working solution/DMSO was added and mixed well by pipetting several times. The mixture was pre-incubated in water bath with shaking at 37°C for 5 minutes. After the pre-incubation, 60 µL of NADPH working solution was added and mixed well by pipetting several times. The mixture was incubated in water bath with shaking at 37°C for 10 minutes. Immediately after incubation, 500 µL of quenching solution was added and vortexed for 1 minute. All samples were centrifuged at 4,000 rpm for 15 minutes at 4°C. 300 µL of the above supernatants were aliquoted for further LC-MS/MS analysis.
(§5) Inhibition rate (% inhibition) is calculated using metabolite formation of the test compound or the control compound compared to the matrix control.

[3] = test system: CYP3A4/5; assay: Inhibition of CYP isoenzymes at a single concentration, liver microsomes; settings: final compound concentration 10 µM; substrate Midazolam; human liver microsomes
Protocol: as §1, §2, §3, §4, §5

[4] = test system: CYP3A4/5 enzymes; assay: Multi-concentration inhibitory activity curve of CYP3A4/5 enzymes, liver microsomes; assay type: in vitro ADME; settings: substrate Midazolam; human liver microsomes; 10 min
Protocol: Experimental purpose: To determine the concentration inhibitory activity curve of compounds on CYP3A4/5 enzymes. • 2.
as §2
Liver microsomes were thawed in a 37°C water bath prior to use. Liver microsome working solution (final system concentration of 0.5 mg/mL) was prepared. 5 mM NADPH working solution was prepared with phosphate buffered saline. The above stock solution was prepared into a 2 mM working solution with DMSO. The above stock solution was diluted with acetonitrile (4-fold dilution, 6 non-zero concentrations).
238.5 µL of liver microsome working solution was added to a 1.1 mL tube. 1.5 µL of test compound/control working solution/DMSO was added and mixed well by pipetting several times. The mixture was pre-incubated in water bath with shaking at 37°C for 5 minutes. […]
The half-maximal inhibitory concentration (IC50) was calculated using Graph Pad Prism.

`COc1nc(C(=O)NS(C)(=O)=O)ccc1NCC#Cc1cc2c(N[C@@H]3CCN(C)C[C@@H]3F)cccn2c1CC(F)(F)F` [Cpd-1, 5-((3-(8-(((3S,4R)-3-Fluoro-1-methylpiperidin-4-yl)amino)-3-(2,2,2-trifluoroethyl)indolizin-2-yl)prop-2-yn-1-yl)amino)-6-methoxy-N-(methylsulfonyl)picolinamide] was tested, and the SC150 [1] was 1.0 nM.

Work on `COc1nc(C(=O)NS(C)(=O)=O)ncc1NCC#Cc1cc2c(N[C@@H]3CCN(C)C[C@@H]3F)cccn2c1CC(F)(F)F` [Cpd-3, 5-((3-(8-(((3S,4R)-3-Fluoro-1-methylpiperidin-4-yl)amino)-3-(2,2,2-trifluoroethyl)indolizin-2-yl)prop-2-yn-1-yl)amino)-4-methoxy-N-(methylsulfonyl)pyrimidine-2-carboxamide] yielded an SC150 [1] of 0.74 nM.

Molecule `[2H]C([2H])([2H])Oc1nc(C(=O)NS(=O)(=O)C2CC2)ccc1NCC#Cc1cc2c(N[C@@H]3CCN(C)C[C@@H]3F)cccn2c1CC(F)(F)F` [Cpd-4, N-(Cyclopropylsulfonyl)-5-((3-(8-(((3S,4R)-3-fluoro-1-methylpiperidin-4-yl)amino)-3-(2,2,2-trifluoroethyl)indolizin-2-yl)prop-2-yn-1-yl)amino)-6-(methoxy-d3)picolinamide] has an SC150 [1] of 0.35 nM.

In the case of `[2H]C([2H])([2H])Oc1nc(C(=O)NS(=O)(=O)CC2CC2)ccc1NCC#Cc1cc2c(N[C@@H]3CCN(C)C[C@@H]3F)cccn2c1CC(F)(F)F` [Cpd-5, N-((Cyclopropylmethyl)sulfonyl)-5-((3-(8-(((3S,4R)-3-fluoro-1-methylpiperidin-4-yl)amino)-3-(2,2,2-trifluoroethyl)indolizin-2-yl)prop-2-yn-1-yl)amino)-6-(methoxy-d3)picolinamide], the SC150 [1] is reported as 1.1 nM.

Molecule `[2H]C([2H])([2H])Oc1nc(C(=O)NS(=O)(=O)CC(F)(F)F)ccc1NCC#Cc1cc2c(N[C@@H]3CCN(C)C[C@@H]3F)cccn2c1CC(F)(F)F` [Cpd-6, 5-((3-(8-(((3S,4R)-3-Fluoro-1-methylpiperidin-4-yl)amino)-3-(2,2,2-trifluoroethyl)indolizin-2-yl)prop-2-yn-1-yl)amino)-6-(methoxy-d3)-N-((2,2,2-trifluoroethyl)sulfonyl)picolinamide] has an SC150 [1] of 1.7 nM.

Molecule `COc1nc(C(=O)NS(=O)(=O)C2CC2)ccc1NCC#Cc1cc2c(N[C@@H]3CCN(C)C[C@@H]3F)cccn2c1CC(F)(F)F` [Cpd-7, N-(Cyclopropylsulfonyl)-5-((3-(8-(((3S,4R)-3-fluoro-1-methylpiperidin-4-yl)amino)-3-(2,2,2-trifluoroethyl)indolizin-2-yl)prop-2-yn-1-yl)amino)-6-methoxypicolinamide] has an SC150 [1] of 0.64 nM.

In the case of `COc1cc(S(C)(=O)=O)ccc1NCC#Cc1nc2c(N[C@@H]3CCN(C)C[C@@H]3F)cccn2c1CC(F)(F)F` [Cpd-B], the SC150 [1] is reported as 15 nM, the “Inhibition rate (%) CYP3A4/5 (Midazolam)” value [2] is reported as 61% and the “Inhibition rate (%) CYP3A4/5 (Testosterone)” value [2] is reported as 75%.

In the case of `CNC(=O)c1ccc(NCC#Cc2cc3c(N[C@@H]4CCN(C)C[C@@H]4F)cccn3c2CC(F)(F)F)c(OC)c1` [Cpd-C, 4-((3-(8-(((3S,4R)-3-Fluoro-1-methylpiperidin-4-yl)amino)-3-(2,2,2-trifluoroethyl)indolizin-2-yl)prop-2-yn-1-yl)amino)-3-methoxy-N-methylbenzamide], the SC150 [1] is reported as 4.6 nM, the “Inhibition rate (%) CYP3A4/5 (Midazolam)” value [3] is reported as 79% and the IC50 [4] is reported as 3.8 µM.
